Test [1] deals with Rhodanobacter sp. FW104-10B01. Put shortly:
(§1)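 Growth was read as OD600 at 24 h, or at 48 h for R2A strain comparisons, after washed cells at a final OD600 of 0.02 (80 µL) were added to 384-well plates holding serially diluted inorganic ion salts or equimolar nitrilotriacetic acid complexes. Aerobic plates were shaken at 700 rpm at 30 °C, but anaerobic plates were not. IC50 was calculated with the drc R package from at least two biological replicate curves, scaled between water and growth-blocking antibiotic controls and excluding wells with precipitate.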

For test [2], the system named is Pseudomonas fluorescens FW300-N2E2. The procedure, abridged:
as §1

[3] abbreviates: medium / electron acceptor: 10B01 R2A/aerobic.
The mark [4] stands for this setting: medium / electron acceptor: 10B01 R2A/nitrate.
[5] abbreviates: medium / electron acceptor: N2E2 Glucose/aerobic.
Where [6] appears, read: medium / electron acceptor: N2E2 Glucose/aerobic 0.25xMinerals.
The mark [7] stands for this setting: medium / electron acceptor: N2E2 Glucose/aerobic (2).
The mark [8] stands for this setting: medium / electron acceptor: N2E2 KB/aerobic.
[9] abbreviates: medium / electron acceptor: N2E2 LB/aerobic.
Where [10] appears, read: medium / electron acceptor: N2E2 LB/aerobic (2).
Where [11] appears, read: medium / electron acceptor: N2E2 LB/nitrate.
[12] abbreviates: medium / electron acceptor: N2E2 Lactate/aerobic.
[13] abbreviates: medium / electron acceptor: N2E2 R2A/aerobic.

Take `[Cl-].[Cl-].[Sr+2]` [Strontium chloride]: the IC50 growth inhibition in test [1] (setting [3]) was 354000 µM; in test [1] (setting [4]) it was 370000 µM; in test [2] (setting [5]), 332 µM; in test [2] (setting [6]), below 244 µM; in test [2] (setting [7]), below 244 µM; in test [2] (setting [8]), below 244 µM. The IC50 growth inhibition is 27700 µM in test [2] (setting [9]); 17200 µM in test [2] (setting [10]); 12800 µM in test [2] (setting [11]); below 244 µM in test [2] (setting [12]); 261000 µM in test [2] (setting [13]).

`CC(=O)[O-].[Tl+]` [Thallium(I) acetate]: the IC50 growth inhibition in test [1] (setting [3]) is above 5000 µM; in test [1] (setting [4]) it was 2950 µM; in test [2] (setting [5]), below 2.44 µM; in test [2] (setting [6]) it was below 2.44 µM; in test [2] (setting [7]), below 2.44 µM; in test [2] (setting [8]), below 2.44 µM. Besides, the IC50 growth inhibition in test [2] (setting [9]), in test [2] (setting [10]), in test [2] (setting [11]), in test [2] (setting [12]) and in test [2] (setting [13]) was below 2.44 µM in each case.

On to `[Cl-].[Cl-].[Zn+2]` [Zinc chloride], for which the IC50 growth inhibition in test [1] (setting [3]) was 1770 µM; in test [1] (setting [4]), 4500 µM; in test [2] (setting [5]) it was below 2.44 µM; in test [2] (setting [6]), below 2.44 µM; in test [2] (setting [7]), below 2.44 µM; in test [2] (setting [8]), 2720 µM. In addition, the IC50 growth inhibition in test [2] (setting [9]) was 2620 µM; in test [2] (setting [10]), 2550 µM; in test [2] (setting [11]) it was 580 µM; in test [2] (setting [12]) it was below 2.44 µM; in test [2] (setting [13]), 70.4 µM.

Take `O.O.O.O.O=S(=O)([O-])[O-].[Be+2]` [beryllium sulfate tetrahydrate]: the IC50 growth inhibition in test [1] (setting [3]) is above 500000 µM; in test [1] (setting [4]), above 500000 µM; in test [2] (setting [5]), 1550 µM; in test [2] (setting [6]), 1550 µM; in test [2] (setting [7]), 1550 µM; in test [2] (setting [8]) it was 109000 µM. Further, the IC50 growth inhibition in test [2] (setting [9]) is 1610 µM; in test [2] (setting [10]) it was below 244 µM; in test [2] (setting [11]) it was 91900 µM; in test [2] (setting [12]) it was 4800 µM; in test [2] (setting [13]), above 500000 µM.

With `[Cl][Bi]([Cl])[Cl]` [bismuth(III) chloride], the IC50 growth inhibition is 2.79 µM in test [1] (setting [3]); 354 µM in test [1] (setting [4]); 10.3 µM in test [2] (setting [5]); 2.76 µM in test [2] (setting [6]); 1.53 µM in test [2] (setting [7]); 57.8 µM in test [2] (setting [8]). The IC50 growth inhibition in test [2] (setting [9]) was found to be 72.7 µM; in test [2] (setting [10]), 103 µM; in test [2] (setting [11]), 6.03 µM; in test [2] (setting [12]), 7.86 µM; in test [2] (setting [13]), 4.01 µM.

On to `O.O.[Cl][Cu][Cl]` [copper (II) chloride dihydrate], for which the IC50 growth inhibition was above 5000 µM in test [1] (setting [3]); above 5000 µM in test [1] (setting [4]); 76.7 µM in test [2] (setting [5]); 76.7 µM in test [2] (setting [6]); 76.7 µM in test [2] (setting [7]); above 5000 µM in test [2] (setting [8]). The IC50 growth inhibition is above 5000 µM in test [2] (setting [9]); above 5000 µM in test [2] (setting [10]); above 5000 µM in test [2] (setting [11]); 76.7 µM in test [2] (setting [12]); 525 µM in test [2] (setting [13]).

As to `O.[Au+3].[Cl-].[Cl-].[Cl-]` [gold (III) chloride hydrate], the IC50 growth inhibition in test [1] (setting [3]) is below 0.244 µM; in test [1] (setting [4]), below 0.244 µM; in test [2] (setting [5]), below 0.244 µM; in test [2] (setting [6]) it was 1.97 µM; in test [2] (setting [7]), below 0.244 µM; in test [2] (setting [8]) it was below 0.244 µM. Besides, the IC50 growth inhibition is below 0.244 µM in test [2] (setting [9]); below 0.244 µM in test [2] (setting [10]); below 0.244 µM in test [2] (setting [11]); 0.257 µM in test [2] (setting [12]); below 0.244 µM in test [2] (setting [13]).

On to `[Cl][Pb][Cl]` [lead (II) chloride], for which the IC50 growth inhibition in test [1] (setting [3]) was above 5000 µM; in test [1] (setting [4]), above 5000 µM; in test [2] (setting [5]), above 5000 µM; in test [2] (setting [6]), 38 µM; in test [2] (setting [7]) it was above 5000 µM; in test [2] (setting [8]) it was above 5000 µM. The IC50 growth inhibition was above 5000 µM in test [2] (setting [9]); above 5000 µM in test [2] (setting [10]); above 5000 µM in test [2] (setting [11]); above 5000 µM in test [2] (setting [12]); 140 µM in test [2] (setting [13]).

For the compound `[Cl][Hg][Cl]` [mercury (II) chloride], the IC50 growth inhibition in test [1] (setting [3]), in test [1] (setting [4]), in test [2] (setting [5]), in test [2] (setting [6]), in test [2] (setting [7]) and in test [2] (setting [8]) was below 2.44 µM throughout. For the same compound, the IC50 growth inhibition in test [2] (setting [9]), in test [2] (setting [10]), in test [2] (setting [11]), in test [2] (setting [12]) and in test [2] (setting [13]) was below 2.44 µM in each case.

Take `[Cl][Pt]([Cl])([Cl])[Cl]` [platinum (IV) chloride]: the IC50 growth inhibition in test [1] (setting [3]) was 123 µM; in test [1] (setting [4]), 93.5 µM; in test [2] (setting [5]), 17.5 µM; in test [2] (setting [6]), 17.5 µM; in test [2] (setting [7]) it was 17.5 µM; in test [2] (setting [8]) it was 35.2 µM. Further, the IC50 growth inhibition in test [2] (setting [9]) came out at 172 µM; in test [2] (setting [10]), 66.1 µM; in test [2] (setting [11]) it was 32.9 µM; in test [2] (setting [12]), 418 µM; in test [2] (setting [13]), 86.1 µM.

Consider `[K+].[OH-].[OH-].[OH-].[OH-].[OH-].[OH-].[Sb+3]` [potassium hexahydroxoantimonate], for which the IC50 growth inhibition was above 5000 µM in test [1] (setting [3]); above 5000 µM in test [1] (setting [4]); above 5000 µM in test [2] (setting [5]); 3960 µM in test [2] (setting [6]); 4820 µM in test [2] (setting [7]); 4980 µM in test [2] (setting [8]). Also, the IC50 growth inhibition is above 5000 µM in test [2] (setting [9]); 4820 µM in test [2] (setting [10]); 3080 µM in test [2] (setting [11]); above 5000 µM in test [2] (setting [12]); above 5000 µM in test [2] (setting [13]).

For the compound `O.O=[Te](=O)([O-])[O-].[K+].[K+]` [potassium tellurate hydrate], the IC50 growth inhibition was above 500 µM in test [1] (setting [3]); above 500 µM in test [1] (setting [4]); above 500 µM in test [2] (setting [5]); 75.3 µM in test [2] (setting [6]); 444 µM in test [2] (setting [7]); above 500 µM in test [2] (setting [8]). In addition, the IC50 growth inhibition is above 500 µM in test [2] (setting [9]); 377 µM in test [2] (setting [10]); 84.5 µM in test [2] (setting [11]); 354 µM in test [2] (setting [12]); above 500 µM in test [2] (setting [13]).

Consider `[Cl-].[Rb+]` [rubidium chloride], for which the IC50 growth inhibition in test [1] (setting [3]) was 354000 µM; in test [1] (setting [4]) it was above 500000 µM; in test [2] (setting [5]) it was 17400 µM; in test [2] (setting [6]), 251000 µM; in test [2] (setting [7]) it was 15700 µM; in test [2] (setting [8]), 349000 µM. Moreover, the IC50 growth inhibition in test [2] (setting [9]) is 387000 µM; in test [2] (setting [10]), 384000 µM; in test [2] (setting [11]) it was 284000 µM; in test [2] (setting [12]), 168000 µM; in test [2] (setting [13]) it was above 500000 µM.

These data come from the supplement of paper PMC6461962.
